Data published in article PMC8600679, “Substituted Two- to Five-Ring Polycyclic Aromatic Compounds Are Potent Agonists of Atlantic Cod (Gadus morhua) Aryl Hydrocarbon Receptors Ahr1a and Ahr2a” (Environmental Science & Technology, 2021).
Like-named read-outs stand apart in the source and are kept apart here.

How the values were obtained:
Atlantic cod Ahr1a = Atlantic cod Ahr1a (Gadus morhua, UniProt A0A6H1Z2L5); assay: cell-based; conditions: for Ahr1a REP25: EC25 of TCDD divided by concentration of PAC giving 25% of TCDD response; for Efficacy compared to TCDD with Ahr1a: Welch's t-test, Supporting Table S6; for Activation of Ahr1a (agonist or not): in vitro transactivation
Atlantic cod Ahr2a = target: T1, Atlantic cod Ahr2a (Gadus morhua, UniProt A0A6H1Z3G8); assay: cell-based; conditions: for Ahr2a REP25: EC25 of TCDD divided by concentration of PAC giving 25% of TCDD response; for Efficacy compared to TCDD via Ahr2a: Welch's t-test, Supporting Table S6; for Activation of Ahr2a (agonist or not): in vitro transactivation; for fold higher REP25 with Ahr2a compared to Ahr1a: Ahr2a versus Ahr1a
T1 sequence (A0A6H1Z3G8 1-1127): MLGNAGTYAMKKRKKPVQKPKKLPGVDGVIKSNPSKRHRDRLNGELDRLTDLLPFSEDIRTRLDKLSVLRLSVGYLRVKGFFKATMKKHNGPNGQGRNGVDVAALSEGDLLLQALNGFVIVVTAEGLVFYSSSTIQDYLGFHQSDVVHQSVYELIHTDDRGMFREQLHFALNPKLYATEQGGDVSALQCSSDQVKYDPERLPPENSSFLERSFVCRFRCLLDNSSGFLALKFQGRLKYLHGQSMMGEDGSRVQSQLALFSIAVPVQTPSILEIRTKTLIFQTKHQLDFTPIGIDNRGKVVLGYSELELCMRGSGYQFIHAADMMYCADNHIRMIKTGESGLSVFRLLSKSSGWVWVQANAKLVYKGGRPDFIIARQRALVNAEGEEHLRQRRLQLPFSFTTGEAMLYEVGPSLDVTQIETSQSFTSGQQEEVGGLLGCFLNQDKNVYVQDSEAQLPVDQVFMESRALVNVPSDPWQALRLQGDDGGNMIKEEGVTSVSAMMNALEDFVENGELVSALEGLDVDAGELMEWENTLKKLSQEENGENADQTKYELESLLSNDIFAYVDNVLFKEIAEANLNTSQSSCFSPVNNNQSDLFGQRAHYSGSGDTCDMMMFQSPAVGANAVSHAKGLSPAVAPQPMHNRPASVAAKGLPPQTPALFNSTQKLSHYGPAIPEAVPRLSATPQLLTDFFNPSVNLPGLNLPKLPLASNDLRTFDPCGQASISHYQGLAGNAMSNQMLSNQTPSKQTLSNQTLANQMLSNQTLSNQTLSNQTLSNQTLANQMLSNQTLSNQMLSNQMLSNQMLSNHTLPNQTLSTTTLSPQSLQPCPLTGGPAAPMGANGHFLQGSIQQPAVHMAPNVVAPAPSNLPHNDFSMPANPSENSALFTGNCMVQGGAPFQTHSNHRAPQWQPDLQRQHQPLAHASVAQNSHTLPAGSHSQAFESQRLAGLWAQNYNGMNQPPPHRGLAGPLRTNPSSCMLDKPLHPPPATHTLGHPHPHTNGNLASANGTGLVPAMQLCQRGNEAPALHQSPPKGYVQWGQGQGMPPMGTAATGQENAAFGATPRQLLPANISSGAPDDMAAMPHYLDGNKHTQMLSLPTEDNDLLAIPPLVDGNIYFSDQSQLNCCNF

COS-7 cells = assay: Resazurin reduction viability assay; format: cell-based, simian; conditions: highest concentrations used; relative to 0.5% DMSO solvent control
Experimental: COS-7 simian kidney cells were seeded onto 96 well plates (10 000 cells/well) in Dulbecco’s modified Eagle’s medium (DMEM) with phenol red, supplemented with 10% fetal bovine serum (FBS), 4 mM L-glutamate, 1 mM sodium pyruvate, and 100 U/mL penicillin–streptomycin (Merck KGaA, Darmstadt, Germany), and cultivated at 37 °C with 5% CO2 for 24 h. Cells were transiently co-transfected with a eukaryotic expression plasmid (pcDNA3.1/Zeo(+), 31 ng/well), pcDNA3.1/Zeo(+)-based plasmids encoding gmAhr1a or gmAhr2a (3 ng/well), gmArnt1 (6 ng/well),[37] a luciferase reporter plasmid containing four DREs (pGudLuc6.1, 30 ng/well), and a β-galactosidase normalization plasmid (pCMV-βGAL, 30 ng/well),[45],[46] using a Mirus TransIT LT-1 transfection reagent according to the recommendations of the supplier. COS-7 cells were seeded and cultivated in DMEM (4500 mg/L glucose), supplemented with 10% FBS, 1 mM sodium pyruvate, and 4 mM L-glutamine. In the exposure medium, FBS was substituted with 10% charcoal-stripped FBS (VWR International, Radnor). To create the exposure media with the highest test concentration, compounds solved in dimethyl sulfoxide (DMSO) were diluted 1:200 in exposure medium, resulting in exposure media with 1× test compound and 0.5% DMSO. The highest concentration exposure media were serially diluted five times (1:2 for the first dilution, then 1:5) in exposure medium supplemented with 0.5% DMSO. Following transfection, cells were incubated in exposure media containing PACs or solvent control (0.5% DMSO) for 24 h. Reporter gene assays were repeated at least three times and with three technical replicates per exposure. TCDD (30 pM to 100 nM) was used as a known agonist in each experiment. Absorbance and luminescence measurements were performed on an EnSpire Multimode plate reader (PerkinElmer, Waltham, MA). While no wavelength filtering was used to measure firefly luciferase activity by luminescence, absorbance measurements to quantify β-galactosidase activity were performed at 420 nm wavelength. The viability of exposed cells was evaluated using the resazurin reduction assay as previously described.[47],[48]
Recorded luminescence was normalized for variation in transfection efficiencies using β-galactosidase enzyme activity. The difference in normalized light units measured in lysates from exposed cells to solvent-exposed cells was calculated and expressed relative to the maximum response in TCDD-exposed cells. Response curves were prepared by nonlinear regression analyses in Prism v7 and used for the determination of half-maximal effective concentration values (EC50) and maximum efficacies (Emax). EC50 values were only determined for compounds that produced a sigmoidal concentration–response curve. Relative effect potencies 25 (REP25) were determined by dividing the EC25 of TCDD by the concentration of PAC necessary to produce a response equal to 25% of the response of TCDD with gmAhrs, essentially as described by Villeneuve et al. and Lam et al.[49],[50] The D’Agostino–Pearson (Ahr activation data) or Kolmogorov–Smirnov (viability data) normality tests were used to confirm the normal distribution of the data. One-way analysis of variance (ANOVA) and Dunnett′s test were used to compare responses at different concentrations of compounds and solvent control mediated via the same Ahr, in addition to comparing metabolic activity in PAC-exposed cells and cells exposed to solvent control in the resazurin reduction assay. Welch′s t-test was used to compare the maximum Ahr-mediated response and potency (Emax and EC50) between Ahr1a or Ahr2a produced by the same test compound (Prism v7).

[1] = set-up: method as in PMID 29505926; conditions: cited from earlier work; for agonistic potential, times higher than CHR: from TEF values; for toxic equivalent factor (TEF): toxic potential relative to the toxicity of BAP
[2] = Ahr1a EC50 (nM), COS-7 cells, 24 h exposure
[3] = COS-7, read-out: Ahr1a Relative Emax (%)
[4] = Ahr2a EC50 (nM), COS-7 cells, 24 h exposure
[5] = COS-7, read-out: Ahr2a Relative Emax (%)
[6] = Potency (EC50, nM) Ahr2a, Supplementary Table S5
[7] = percent of maximum efficacy determined for TCDD, COS-7 cells, 24 h exposure, None = no agonistic response significantly different from solvent
[8] = COS-7 cells, 24 h exposure, read-out: Ahr1a EC50
[9] = Supplementary Table S5, read-out: Potency (EC50, nM) Ahr1a
[10] = percent of maximum efficacy determined for TCDD, COS-7 cells, 24 h exposure, None = no agonistic response significantly different from solvent, read-out: Ahr1a Relative Emax (%)
[11] = COS-7 cells, 24 h exposure, read-out: Ahr2a EC50
[12] = Supplementary Table S5, read-out: Potency (EC50, nM) Ahr2a
[13] = percent of maximum efficacy determined for TCDD, COS-7 cells, 24 h exposure, None = no agonistic response significantly different from solvent, read-out: Ahr2a Relative Emax (%)

Atlantic cod Ahr1a, sequence (A0A6H1Z2L5 1-957): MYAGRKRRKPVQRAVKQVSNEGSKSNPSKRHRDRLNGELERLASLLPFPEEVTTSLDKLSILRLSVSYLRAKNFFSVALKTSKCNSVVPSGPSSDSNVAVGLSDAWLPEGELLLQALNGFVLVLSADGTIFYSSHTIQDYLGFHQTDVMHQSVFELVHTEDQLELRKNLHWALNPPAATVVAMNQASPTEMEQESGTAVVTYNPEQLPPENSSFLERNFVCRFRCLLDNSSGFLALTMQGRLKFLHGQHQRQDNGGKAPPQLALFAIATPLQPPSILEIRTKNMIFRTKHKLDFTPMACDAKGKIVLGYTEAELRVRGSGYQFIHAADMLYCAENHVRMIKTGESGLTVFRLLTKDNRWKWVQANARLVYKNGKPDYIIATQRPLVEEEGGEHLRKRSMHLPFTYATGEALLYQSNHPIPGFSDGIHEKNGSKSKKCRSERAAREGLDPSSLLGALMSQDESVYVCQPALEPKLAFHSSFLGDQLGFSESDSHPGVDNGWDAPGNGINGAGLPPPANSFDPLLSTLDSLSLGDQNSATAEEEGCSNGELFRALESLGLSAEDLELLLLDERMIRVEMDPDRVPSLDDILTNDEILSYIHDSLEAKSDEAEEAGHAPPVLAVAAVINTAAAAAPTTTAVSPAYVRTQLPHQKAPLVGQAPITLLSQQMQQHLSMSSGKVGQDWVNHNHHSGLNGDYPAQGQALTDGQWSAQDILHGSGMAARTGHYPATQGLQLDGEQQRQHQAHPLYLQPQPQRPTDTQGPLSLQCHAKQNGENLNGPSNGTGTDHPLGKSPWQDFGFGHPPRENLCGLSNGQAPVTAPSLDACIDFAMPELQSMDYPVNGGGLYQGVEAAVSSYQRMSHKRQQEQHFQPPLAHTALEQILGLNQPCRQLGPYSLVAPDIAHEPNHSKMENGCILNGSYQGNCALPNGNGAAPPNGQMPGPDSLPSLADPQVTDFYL
Atlantic cod Ahr1a, sequence (A0A8C5CZZ9 1-645 partner): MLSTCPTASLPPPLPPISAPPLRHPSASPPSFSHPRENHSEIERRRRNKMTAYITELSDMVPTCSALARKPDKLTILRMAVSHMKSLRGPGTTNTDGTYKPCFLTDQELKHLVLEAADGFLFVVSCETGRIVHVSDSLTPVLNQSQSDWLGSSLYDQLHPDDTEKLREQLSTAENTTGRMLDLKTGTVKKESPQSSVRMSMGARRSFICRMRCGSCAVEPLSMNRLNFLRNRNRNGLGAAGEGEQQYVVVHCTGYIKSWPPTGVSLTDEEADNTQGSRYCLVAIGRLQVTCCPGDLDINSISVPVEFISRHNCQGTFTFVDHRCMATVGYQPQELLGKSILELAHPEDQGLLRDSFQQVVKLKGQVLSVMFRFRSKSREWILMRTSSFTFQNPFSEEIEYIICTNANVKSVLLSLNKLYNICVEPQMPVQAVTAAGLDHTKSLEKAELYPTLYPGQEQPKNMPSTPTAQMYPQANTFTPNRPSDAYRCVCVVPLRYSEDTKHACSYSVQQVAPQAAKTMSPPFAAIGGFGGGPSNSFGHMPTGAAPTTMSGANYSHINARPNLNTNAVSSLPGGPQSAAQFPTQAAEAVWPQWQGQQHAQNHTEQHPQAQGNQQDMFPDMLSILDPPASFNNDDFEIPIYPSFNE

Row | SMILES | Ahr1a REP25 (Atlantic cod Ahr1a) | Efficacy compared to TCDD with Ahr1a (Atlantic cod Ahr1a) | Ahr2a REP25 (Atlantic cod Ahr2a) | Efficacy compared to TCDD via Ahr2a (Atlantic cod Ahr2a) | Metabolic activity (cell viability) of exposed COS-7 cells (COS-7 cells) | toxic equivalent factor (TEF) [1] | EC50 (Atlantic cod Ahr1a; [8]) [nM] | EC50 (Atlantic cod Ahr1a; [9]) [nM] | Emax (Atlantic cod Ahr1a; [10]) [%] | EC50 (Atlantic cod Ahr2a; [11]) [nM] | EC50 (Atlantic cod Ahr2a; [12]) [nM] | Emax (Atlantic cod Ahr2a; [13]) [%] | fold higher REP25 with Ahr2a compared to Ahr1a (Atlantic cod Ahr2a) | other results
1 | Oc1cccc2c1ccc1c3ccccc3ccc21 [1-COH, Chrysene-1-ol] | 0.0045 | higher efficacies (superefficacies) than TCDD | 0.0077 | lower efficacies in comparison to TCDD | slight reduction in metabolic activities | – | – | – | – | – | – | – | – | EC50 (Atlantic cod Ahr1a; [2]): 485 nM; Emax (Atlantic cod Ahr1a; [3]): 116%; Emax (Atlantic cod Ahr1a; COS-7, read-out: Efficacy (Emax, %) Ahr1a): 116%; EC50 (Atlantic cod Ahr1a; Potency (EC50, nM) Ahr1a, Supplementary Table S5): 485 nM; EC50 (Atlantic cod Ahr2a; [4]): 633 nM; Emax (Atlantic cod Ahr2a; [5]): 72.8%; EC50 (Atlantic cod Ahr2a; [6]): 633 nM
2 | Cc1cccc2c1ccc1c3ccccc3ccc21 [1-MC, 1-Methylchrysene] | 0.0070 | lower efficacies than TCDD | 0.022 | lower efficacies in comparison to TCDD | – | 0.1 | – | – | – | – | – | – | – | EC50 (Atlantic cod Ahr1a; [2]): 175 nM; Emax (Atlantic cod Ahr1a; [3]): 45.8%; agonistic potential, times higher than CHR [1]: 10 times; EC50 (Atlantic cod Ahr2a; [4]): 172 nM; Emax (Atlantic cod Ahr2a; [5]): 43.6%; EC50 (Atlantic cod Ahr2a; [6]): 172 nM
3 | Cc1cc2ccc3ccccc3c2cc1C [2,3-DMP, 2,3-Dimethylphenanthrene] | – | – | – | – | slight reduction in metabolic activities | – | – | – | – | – | – | – | – | Activation of Ahr1a (agonist or not) (Atlantic cod Ahr1a): did not activate; Ahr1a Relative Emax (%) (Atlantic cod Ahr1a; [7]): None; Activation of Ahr2a (agonist or not) (Atlantic cod Ahr2a): did not activate; Ahr2a Relative Emax (%) (Atlantic cod Ahr2a; [7]): None
4 | Oc1ccc2ccc3c4ccccc4ccc3c2c1 [3-COH, Chrysene-3-ol] | 0.00257 | lower efficacies than TCDD | 0.0099 | lower efficacies in comparison to TCDD | slight reduction in metabolic activities | – | 345 | 345 | 86.5 | 275 | 274 | 66.1 | – | –
5 | COc1ccc2ccc3c4ccccc4ccc3c2c1 [3-MOC, 3-Methoxychrysene] | 0.0056 | lower efficacies than TCDD | 0.0588 | lower efficacies in comparison to TCDD | slight reduction in metabolic activities | – | 195 | – | 66.6 | 98.6 | – | 80.8 | 5- to 10 fold | –
6 | COc1cccc2ccc3c4ccccc4ccc3c12 [4-MOC, 4-Methoxychrysene] | 0.033 | lower efficacies than TCDD | 0.206 | – | slight reduction in metabolic activities | – | 43.8 | – | 83.8 | 30.9 | – | 93.7 | 5- to 10 fold | –
7 | Cc1cc2ccccc2c2ccc3ccccc3c12 [5-MC, 5-Methylchrysene] | 0.00494 | efficacies similar to that of TCDD | 0.0495 | lower efficacies in comparison to TCDD | slight reduction in metabolic activities | 1.0 | 596 | 596 | 90.1 | 193 | 193 | 68.4 | 5- to 10 fold | agonistic potential, times higher than CHR [1]: 100 times
8 | Cc1cc2c3ccccc3ccc2c2ccccc12 [6-MC, 6-Methylchrysene] | 0.00064 | efficacies similar to that of TCDD | 0.0031 | – | slight reduction in metabolic activities | – | – | 3540 | 90.6 | 2260 | 88.8 | 89.8 | 5- to 10 fold | –
9 | c1ccc2c(c1)ccc1c3ccccc3ccc21 [CHR, Chrysene] | 0.00052 | lower efficacies than TCDD | – | lower efficacies in comparison to TCDD | – | 0.01 | 481 | 481 | 40.8 | – | 3440 | – | – | Activation of Ahr1a (agonist or not) (Atlantic cod Ahr1a): solely activate Ahr1a; Emax (Atlantic cod Ahr2a; COS-7, Supplementary Table S5, read-out: Efficacy (Emax, %) Ahr2a): 3.6%; Activation of Ahr2a (agonist or not) (Atlantic cod Ahr2a): solely activate Ahr1a; Ahr2a Relative Emax (%) (Atlantic cod Ahr2a; [7]): None
